Counter-ions that a name gives are not always drawn.
Experiments:
[1] = target: human MEK1 (Homo sapiens, UniProt Q02750); assay: MEK-1 Enzyme Assay (LANCE-HTRF); assay type: biochemical; conditions: 100 nM MEK1, 15 μM ATP, 300 nM ERK2, two hours; read-out: MEK inhibition
Description: Assay 1: MEK-1 Enzyme Assay (LANCE-HTRF)
The activity of the compounds of the present invitation may be determined by the following procedure; Inhibition of human MEK1 kinase activity was monitored with a homogenous, fluorescence based assay. The assay uses time resolved fluorescence resonance energy transfer to probe for phosphorylation of ERK1 by MEK1. The assay is carried out in low volume 96 well microtiterplates. […] After two hours, 5 nM Europium-anti-PY20 (Perkin Elmer) and 50 nM Anti-GST-Allophycocyanin (CisBio) in buffer containing 50 mM EDTA and 0.05% BSA are added and the reaction incubated for one hour in the dark. Time-resolved fluorescence is measured using a LJL-Analyst (Molecular Devices) with an excitation wavelength of 340 nm and an emission wavelength of 665 nm. The final concentration of DMSO is 2%.

[2] = system: Murine colon C26 cells; assay: Tumor cell proliferation assay (ATP Lite), C26; assay type: cell-based; conditions: Mus musculus, 96 h, 4 days
Description: (§1) Assay 2: Tumor Cell Proliferation Assays (ATP Lite)
(§2) Murine colon C26, human melanoma A375 and MeI5 or human pancreatic MiaPaCa-2 cells were plated in 96 well Corning white plates (1500 cells/well for C26, and 2000 cells/well for A375, and MiaPaCa-2) and cultured overnight at 37° C. in 5% CO2. Inhibitors were serially diluted in 100% DMSO and subsequently added to cells to reach a final concentration of 0.25% DMSO. The cells were incubated for 4 days in the presence of test compounds in cell growth media (DMEM with 10% fetal bovine serum, 2 mM glutamine for C26, and MiaPaCa-2, and RPMI with 10% fetal bovine serum, 2 mM glutamine for A375). Cell proliferation was quantitated using the ATP lite cell proliferation kit (Packard). Columns 4-6 show the concentration of compounds required to induce 50% cell death (IC50 in μM) of […]. With “+” meaning 3 μM<IC50≦10 μM and “++” IC50≦3 μM and “n.d.” means not determined. Few compounds were also tested on human melanoma cell MeI5.

[3] = system: human melanoma A375 cells; assay: Tumor cell proliferation assay (ATP Lite), A375; assay type: cell-based; conditions: A-375, 96 h, 4 days
Description: as §1, §2

[4] = system: human pancreatic MiaPaCa-2 cells; assay: Tumor cell proliferation assay (ATP Lite), MiaPaCa-2; assay type: cell-based; conditions: MIA PaCa-2, 96 h, 4 days
Description: as §1, §2

Sequence of human MEK1 (Q02750 whole entry): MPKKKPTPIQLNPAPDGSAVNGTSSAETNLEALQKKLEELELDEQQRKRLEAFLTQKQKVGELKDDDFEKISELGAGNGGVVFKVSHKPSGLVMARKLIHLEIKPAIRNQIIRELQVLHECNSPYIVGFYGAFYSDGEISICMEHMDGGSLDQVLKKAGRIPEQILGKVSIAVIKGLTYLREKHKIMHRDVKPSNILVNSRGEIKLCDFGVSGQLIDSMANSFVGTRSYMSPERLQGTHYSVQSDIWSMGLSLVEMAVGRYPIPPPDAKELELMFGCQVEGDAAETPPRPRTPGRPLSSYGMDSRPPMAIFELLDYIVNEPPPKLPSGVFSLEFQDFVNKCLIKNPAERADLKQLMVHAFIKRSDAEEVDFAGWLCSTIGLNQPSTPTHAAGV

Row | IC50 [1] [µM] | IC50 [2] [µM] | IC50 [3] [µM] | IC50 [4] [µM] | Structure (SMILES)
1 | < 1 | ≤ 3 | ≤ 3 | ≤ 3 | CN(C)C(=O)c1ccncc1Nc1ccc(I)cc1Cl [Example 23, 3-[(2-chloro-4-iodophenyl)amino]-N-dimethylisonicotinamide]
2 | < 1 | ≤ 3 | ≤ 3 | ≤ 3 | O=C(NNc1ccccn1)c1ccncc1Nc1ccc(I)cc1F [Example 49, 3-[(2-fluoro-4-iodophenyl)amino]-N′-pyridin-2-ylisonicotino-hydrazide]
3 | < 1 | ≤ 3 | ≤ 3 | ≤ 3 | O=C(NNc1ccccc1)c1ccncc1Nc1ccc(I)cc1F [Example 32, 3-[(2-fluoro-4-iodophenyl)amino]-N′-phenylisonicotinohydrazide]
4 | < 1 | ≤ 3 | ≤ 3 | ≤ 3 | O=C(NCCCN1CCCC1=O)c1ccncc1Nc1ccc(I)cc1F [Example 30, 3-[(2-fluoro-4-iodophenyl)amino]-N-[3-(2-oxopyrrolidin-1-yl)propyl]isonicotinamide]
5 | < 1 | 3 to 10 | ≤ 3 | 3 to 10 | CC(C)(C)OC(=O)NC1CCN(C(=O)c2ccncc2Nc2ccc(I)cc2F)CC1 [Example 34, tert-butyl(1-{3-[(2-fluoro-4-iodophenyl)amino]isonicotinoyl}-piperidin-4-yl)carbamate]
6 | < 1 | ≤ 3 | ≤ 3 | ≤ 3 | Cc1cccc(NNC(=O)c2ccncc2Nc2ccc(I)cc2F)c1 [Example 90, 3-[(2-fluoro-4-iodophenyl)amino]-N′-(3-methylphenyl)isonicotino-hydrazide]
7 | < 1 | ≤ 3 | ≤ 3 | ≤ 3 | NC(=O)c1ccncc1Nc1ccc(I)cc1Cl [Example 11, 3-[(2-chloro-4-iodophenyl)amino]isonicotinamide]
8 | < 1 | ≤ 3 | ≤ 3 | ≤ 3 | O=C(NC1CCCC1)c1ccncc1Nc1ccc(I)cc1F [Example 60, N-cyclopentyl-3-[(2-fluoro-4-iodophenyl)amino]isonicotinamide]
9 | < 1 | ≤ 3 | ≤ 3 | ≤ 3 | C[C@@H](O)CNC(=O)c1ccncc1Nc1ccc(I)cc1F [Example 48, 3-[(2-fluoro-4-iodophenyl)amino]-N-[(2R)-2-hydroxypropyl]-isonicotinamide]
10 | < 1 | 3 to 10 | ≤ 3 | 3 to 10 | O=C(NOCc1ccccc1)c1ccncc1Nc1ccc(I)cc1F [Example 91, N-(benzyloxy)-3-[(2-fluoro-4-iodophenyl)amino]isonicotinamide]
11 | < 1 | ≤ 3 | ≤ 3 | ≤ 3 | O=C(NCCCCl)c1ccncc1Nc1ccc(I)cc1F [Example 79, N-(3-chloropropyl)-3-[(2-fluoro-4-iodophenyl)-amino]isonicotinamide]
12 | < 1 | 3 to 10 | ≤ 3 | 3 to 10 | CCOC(CNC(=O)c1ccncc1Nc1ccc(I)cc1F)OCC [Example 98, N-(2,2-diethoxyethyl)-3-[(2-fluoro-4-iodophenyl)amino]-isonicotinamide]
13 | < 1 | 3 to 10 | ≤ 3 | 3 to 10 | NC1CCN(C(=O)c2ccncc2Nc2ccc(I)cc2F)CC1 [Example 44, 4-[(4-aminopiperidin-1-yl)carbonyl]-N-(2-fluoro-4-iodophenyl)pyridin-3-amine hydrochloride]
14 | < 1 | ≤ 3 | ≤ 3 | ≤ 3 | O=C(NCCCO)c1cc(Br)ncc1Nc1ccc(I)cc1F [Example 70, 2-Bromo-5-(2-fluoro-4-iodo-phenylamino)-N-(3-hydroxy-propyl)-isonicotinamide]
15 | < 1 | 3 to 10 | ≤ 3 | 3 to 10 | O=C(NOCc1ccccc1)c1ccncc1Nc1ccc(I)cc1Cl [Example 81, N-Benzyloxy-3-(2-chloro-4-iodo-phenylamino)-isonicotinamide]
16 | < 1 | 3 to 10 | ≤ 3 | 3 to 10 | CC(C)(C)OC(=O)NNC(=O)c1ccncc1Nc1ccc(I)cc1F [Example 45, tert-butyl 2-{3-[(2-fluoro-4-iodophenyl)amino]-isonicotinoyl}hydrazine-carboxylate]
17 | < 1 | ≤ 3 | ≤ 3 | ≤ 3 | O=C(NOC[C@@H](O)CO)c1ccncc1Nc1ccc(I)cc1F [Example 75, N-{[(2S)-2,3-dihydroxypropyl]oxy}-3-[(2-fluoro-4-iodophenyl)-amino]isonicotin-amide]
18 | < 1 | ≤ 3 | ≤ 3 | ≤ 3 | O=C(NCCCCCO)c1ccncc1Nc1ccc(I)cc1Cl [Example 36, 3-(2-Chloro-4-iodo-phenylamino)-N-(5-hydroxy-pentyl)-isonicotinamide]
19 | < 1 | ≤ 3 | ≤ 3 | ≤ 3 | O=C(NCCN1CCOCC1)c1ccncc1Nc1ccc(I)cc1F [Example 13, 3-(2-Fluoro-4-iodo-phenylamino)-N-(2-morpholin-4-yl-ethyl)-isonicotinamide]
20 | < 1 | ≤ 3 | ≤ 3 | ≤ 3 | NC(=O)c1ccncc1Nc1ccc(I)cc1F [Example 12, 3-[(2-fluoro-4-iodophenyl)amino]isonicotinamide]
21 | < 1 | 3 to 10 | ≤ 3 | ≤ 3 | O=C(NN1CCCCC1)c1ccncc1Nc1ccc(I)cc1F [Example 19, 3-[(2-fluoro-4-iodophenyl)amino]-N-piperidin-1-ylisonicotinamide]
22 | < 1 | ≤ 3 | ≤ 3 | ≤ 3 | NC(=O)c1cc[n+]([O-])cc1Nc1ccc(I)cc1F [Example 97, 3-(2-Fluoro-4-iodo-phenylamino)-1-oxy-isonicotinamide]
23 | < 1 | 3 to 10 | ≤ 3 | 3 to 10 | O=C(NC1CC2CCC1C2)c1ccncc1Nc1ccc(I)cc1F (centres unmarked) [Example 82, N-bicyclo[2.2.1]hept-2-yl-3-[(2-fluoro-4-iodophenyl)amino]-isonicotinamide]
24 | < 1 | 3 to 10 | ≤ 3 | 3 to 10 | O=C(NCc1ccccn1)c1ccncc1Nc1ccc(I)cc1F [Example 40, 3-[(2-fluoro-4-iodophenyl)amino]-N-(pyridin-2-ylmethyl)-isonicotinamide]
25 | < 1 | 3 to 10 | ≤ 3 | 3 to 10 | CC(=O)NCCNC(=O)c1ccncc1Nc1ccc(I)cc1Cl [Example 64, N-(2-Acetylamino-ethyl)-3-(2-chloro-4-iodo-phenylamino)-isonicotinamide]
26 | < 1 | ≤ 3 | ≤ 3 | ≤ 3 | O=C(NOC[C@H](O)CO)c1ccncc1Nc1ccc(I)cc1 [Example 96, N-{[(2R)-2,3-dihydroxypropyl]oxy}-3-(4-iodophenylamino)-isonicotinamide]

Reference: patent US8524911B2, “3-arylamino pyridine derivatives” (Merck Serono SA, priority 2004, dated 2013)
